Reference: ChEMBL document CHEMBL2429731, “Using genetic methods to define the targets of compounds with antimalarial activity” (J Med Chem, 2013)

Tests used:
[1] = test system: Plasmodium yoelii; assay: Antimalarial activity against sporozoite stage of Plasmodium yoelii assessed as invasion of human HepG2 cells expressing CD81 incubated for 2 hrs prior to inoculation measured after 1 hr by immunofluorescence assay in presence of penicillin/streptomycin; format: functional, organism-based
[2] = test system: Plasmodium berghei; assay: Antimalarial activity against gametocytic stage of Plasmodium berghei infected in blood assessed as inhibition of ookinete formation at 10 uM after 24 hrs by Giemsa staining-based microscopic analysis relative to control; format: functional

Compound | IC50 [1] [nM] | inhibition at 10 µM [2] [%]
COc1cc(N[C@H](C)CCCN)c2nccc(C)c2c1Oc1ccc(Cl)c(Cl)c1 | < 1000 | –
CCc1nc(N)nc(N)c1OCCCOc1ccccc1CCC(=O)O | < 1000 | –
CN(C)c1ccc2nc3ccc(N(C)C)cc3[s+]c2c1 [METHYLENE BLUE ANHYDROUS] | < 1000 | < 50
CCc1nc(N)nc(N)c1-c1ccc(Cl)cc1 [PYRIMETHAMINE] | < 1000 | < 50
C=C[C@H]1CN2CC[C@H]1C[C@H]2[C@H](O)c1ccnc2ccc(OC)cc12 [QUININE] | – | < 50

Second part, led by results:

IC50 [1] [nM] | Compound | inhibition at 10 µM [2] [%]
< 1000 | CO[C@H]1O[C@@H]2O[C@@]3(C)CC[C@H]4[C@H](C)CC[C@@H]([C@H]1C)[C@@]24OO3 [ARTEMETHER] | –
< 1000 | C[C@H]1[C@@H](O)O[C@@H]2O[C@@]3(C)CC[C@H]4[C@H](C)CC[C@@H]1[C@@]24OO3 [ARTENIMOL] | –
< 1000 | C[C@H]1[C@H](OC(=O)CCC(=O)O)O[C@@H]2O[C@@]3(C)CC[C@H]4[C@H](C)CC[C@@H]1[C@@]24OO3 [ARTESUNATE] | –
< 1000 | O=C1C(O)=C([C@H]2CC[C@H](c3ccc(Cl)cc3)CC2)C(=O)c2ccccc21 [ATOVAQUONE] | < 50
< 1000 | COc1cc(NC(C)CCCN)c2ncccc2c1 (configuration not stated) [PRIMAQUINE] | < 50
< 1000 | COc1ccc2nc3cc(Cl)ccc3c(Nc3cc(CN4CCCC4)c(O)c(CN4CCCC4)c3)c2n1 [PYRONARIDINE] | < 50
< 1000 | COc1cc(C)c2c(Oc3cccc(C(F)(F)F)c3)c(OC)cc(NC(C)CCCN)c2n1 (configuration not stated) [TAFENOQUINE] | –
